Assay results reported in patent US10265286B2, “Sequelae of cardiopulmonary bypass-induced pulmonary injury” (Vanderbilt University, priority 2016, dated 2019).
Where two headings read alike, the source gives them in different places.

Assays:
Type in all cases: in vivo, human
[1] = Intravenous citrulline dose escalation pharmacokinetics in children undergoing congenital cardiac surgery
Method: The initial goal was to test the safety and pharmacokinetics of three doses of intravenous citrulline in children undergoing surgical repair of specific congenital heart defects. […] An adverse drop in mean arterial pressure was defined as a greater than a twenty percent decrease from baseline. The baseline postoperative mean arterial blood pressure was calculated as the average of mean arterial blood pressure measurements collected every 5 minutes for the 30 minutes immediately preceding the administration of the postoperative dose or infusion.
The original doses selected were 200, 400, and 600 mg/kg based on data from previous animal studies. The original study design was a 4 arm study using the 3 doses and a placebo control.
After pharmacokinetic modeling, the study design was changed to a bolus dose of 150 mg/kg given in the OR on cardiopulmonary bypass followed 4 hours later by a continuous infusion of 9 mg/kg/hour for 48 hours. Another 9 patients were enrolled. The mean plasma levels of both citrulline and arginine in study patients (+IV citrulline) compared to patients in the observational cohort (−IV citrulline) are depicted in FIGS. 11A-B.
The dose of citrulline was given in the operating room immediately after cannulation and initiation of cardiopulmonary bypass. The overall goal was to achieve a sustained citrulline level of 100 μmol/L or more up to four hours after the initial dose. The four hour time point was selected to allow for the surgical procedure to be completed and the patient to return to the Intensive Care Unit (ICU) postoperatively before further dosing.

[2] = Randomized placebo controlled intravenous citrulline study, 77 patients (plasma citrulline target); conditions: citrulline removed by hemofiltration during CPB
From the text: An intravenous citrulline study conducted was a randomized, placebo controlled, double blind study with the primary clinical outcome being length of mechanical ventilation postoperatively and secondarily the incidence of postoperative pulmonary hypertension between the 2 treatment groups (citrulline vs placebo).
A total of 77 patients were enrolled at Vanderbilt Children's Hospital. Patients were screened based on the surgical schedule. Based on this schedule, patients undergoing one of the 5 planned cardiac surgeries included in this study were screened (patients undergoing the Norwood procedure are now excluded at the recommendation of the DSMB).

[3] = Phase IB study: plasma citrulline concentrations (Example 10A); conditions: for Number of samples with Citrulline >100 μmol/L / Number of samples with Citrulline ≤100 μmol/L: all samples except baseline
Method: (§1) Twenty two (22) patients were enrolled and treated. Patients received an IV citrulline bolus of 150 mg/kg or placebo at the initiation of CPB, followed by the addition of L-citrulline at a concentration of 200 μmol/L or placebo to the filtration or hemoconcentration replacement fluid used during CPB. A citrulline bolus of 20 mg/kg was administered 30 minutes after decannulation from CPB, immediately followed by a 9-mg/kg/hr continuous infusion of citrulline or placebo for 48 hours. Study participation ended at discharge or at Day 28 whichever came first.
(§2) Plasma citrulline concentration levels were the primary PK variable; these were assessed in blood samples collected at 7 perioperative time points. Secondary PK variables were concentrations of arginine and nitric oxide (NO) metabolites in the same sample set. PK values were compared between groups.
The citrulline concentration levels during and after the CPB procedure was the PK parameter of interest in this study. The target level in patients treated with intravenous citrulline was a plasma citrulline level of >100 μmol/L during the immediate follow-up period after CPB. Plasma blood collection was performed at 7 perioperative time points: at baseline before surgery, during CPB (post-bolus 1), and after surgery/CPB at the time points 0 hours (pre bolus 2), 6 hours, 12 hours, 24 hours, and 48 hours.

[4] = Phase IB study: plasma nitric oxide (NO metabolite) concentrations; conditions: each of the treatment groups
Method: as §1, §2

[5] = Phase IB study: length of time on inotropes and inotrope score
From the text: The inotrope dose should be monitored post operatively from the time of PCCU admission using the following scoring system:
• =total inotrope score See, e.g., Hoffman, et al. Circulation (2003) 107: 996-1002. A decrease in the inotrope score would be a positive postoperative outcome.
In FIG. 21, data are defined as the time between the start and end times of inotrope use. All missing or 0 total inotrope scores prior to the first measured score are set to 0 and are therefore not considered as being on inotropes. The total inotrope score is considered, which is calculated on the basis of Dopamine, Dobutamine, Milrinone, Epinephrine, Phenylephrine, and Norepinephrine. The length of time on inotropes of patients with no use of inotropes is set to 0 hours (not censored).
The length of time on IV inotropes was documented from the time of first use after surgery until completion of the study medication at 48 hours, i.e. the duration of inotrope use was maximally 48 hours in the current analysis. Patients still receiving inotropes at hour 48 after surgery were censored. The average duration of intravenous (IV) inotrope use was clearly lower in the citrulline group than in the placebo group (Table 12). However, statistical significance for the between-treatment difference was not reached.

[6] = Phase IB study: safety (adverse events, bleeding, laboratory, hemodynamics)
Method: Primary safety assessments included hemodynamic monitoring to identify clinically significant hypotension using age-specific limits. Adverse event information was collected, and postoperative bleeding was recorded.
Further safety, laboratory, and clinical assessments were performed from baseline to discharge, secondary clinical variables included: postoperative mechanical ventilation, duration of total respiratory support, hemodynamic improvement, postoperative PVT by echocardiogram, serum creatinine and liver enzymes, inotrope score, duration of chest tube usage, length of intensive care unit stay, length of hospitalization and survival.

[7] = Phase IB study: postoperative invasive mechanical ventilation; conditions: end of surgery until last extubation, FIG. 20
[8] = revised IV protocol, Post Bolus 1
[9] = revised IV protocol, Pre Bolus 2
[10] = all i.v. inotropes postoperatively

NC(=O)NCCCC(N)C(=O)O (stereo not shown) [Citrulline, 2-amino-5-(carbamoylamino)pentanoic acid]
peak citrulline level ([1]; 50 mg/kg IV, Patients 6 and 8): approximately 220 μmol/L | peak citrulline level ([1]; 100 mg/kg IV, Patients 9 & 10): 375 µmol/L | four hour levels ([1]; 150 mg/kg IV bolus): 100 µmol/L | peak citrulline level ([1]; 150 mg/kg IV, Patient 13-16): 660 µmol/L | plasma levels achieved ([1]; IV doses 200, 400, and 600 mg/kg): very high | sustained citrulline level suggested by pharmacokinetic modeling ([1]; bolus 150 mg/kg then 4 hours later continuous infusion 9 mg/kg/hr): approximately 100 μmol/L | half-life ([1]; human, plasma, iv, IV bolus doses in children on CPB): ~1.42 h | concentration at 4 hour ([1]; human, plasma, 50 mg/kg IV, Patients 6 and 8, read-out: 4 hour trough level): 40 µM | concentration at 4 hour ([1]; human, plasma, 100 mg/kg IV, Patients 9 & 10, read-out: 4 hour trough): 50 µM | concentration at 4 hour ([1]; human, plasma, 150 mg/kg IV, Patient 13-16, read-out: 4 hour trough): 80 µM | attainment of sustained target plasma citrulline level of 100 μmol/L [2]: did not reach the therapeutic sustained target plasma citrulline level | Number of samples with Citrulline >100 μmol/L ([3]; Site 01): 25 | Number of samples with Citrulline ≤100 μmol/L ([3]; Site 01): 2 | Number of samples with Citrulline >100 μmol/L ([3]; Site 02): 29 | Number of samples with Citrulline ≤100 μmol/L ([3]; Site 02): 3 | samples with plasma citrulline levels <100 μmol/L ([3]; of the total of 59 samples, excluding baseline samples): 5 | Citrulline concentrations, Mean ± SD ([3]; revised IV protocol, N = 11, Baseline): 200.9 ± 569.89 µmol/L | Citrulline concentrations, Median ([3]; revised IV protocol, Baseline): 32.0 µmol/L | Citrulline concentrations, Mean ± SD ([3]; revised IV protocol, Hour 6): 167.8 ± 117.67 µmol/L | Citrulline concentrations, Median ([3]; revised IV protocol, Hour 6): 138.0 µmol/L | Citrulline concentrations, Mean ± SD ([3]; revised IV protocol, Hour 12): 127.1 ± 16.18 µmol/L | Citrulline concentrations, Median ([3]; revised IV protocol, Hour 12): 125.0 µmol/L | Citrulline concentrations, Mean ± SD ([3]; revised IV protocol, Hour 24): 125.3 ± 38.74 µmol/L | Citrulline concentrations, Median ([3]; revised IV protocol, Hour 24): 114.0 µmol/L | Citrulline concentrations, Mean ± SD [3, 8]: 2405.9 ± 1517.4 µmol/L | Citrulline concentrations, Median [3, 8]: 2577.0 µmol/L | Citrulline concentrations, Mean ± SD [3, 9]: 890.9 ± 1077.5 µmol/L | Citrulline concentrations, Median [3, 9]: 573.0 µmol/L | plasma citrulline levels achieved ([3]; revised IV protocol, target level 100 μmol/L): > 100 µmol/L | plasma nitric oxide levels across the sampling time points [4]: remained more or less unchanged | Total inotrope score, Diff (CI) placebo vs citrulline [5, 10]: 559.8 (−193.5, 1313.2) | Total inotrope score, Median [5, 10]: 650.0 | Total inotrope score, Range [5, 10]: 0.0-2351.0 | Total inotrope score, Mean ± SD ([5]; all i.v. inotropes postoperatively, N = 11): 602.7 ± 727.86 | Length of time on i.v. inotropes, Diff (CI) placebo vs citrulline ([5]; maximally 48 hours): 12.7 (−2.6, 28.1) hours | Length of time on i.v. inotropes, Median ([5]; maximally 48 hours): 16.0 h | Length of time on i.v. inotropes, Range ([5]; maximally 48 hours): 0.0 to 47.0 h | Length of time on i.v. inotropes, Mean ± SD ([5]; maximally 48 hours, N = 11): 13.4 ± 14.78 h | AE hypotension ([6]; citrulline group): 27% | AE tachypnea ([6]; citrulline group): 27% | AE hypertension ([6]; citrulline group, placebo 36%): 27% | AE pleural effusion ([6]; citrulline group, placebo 45%): 36% | patients with at least one treatment-emergent AE ([6]; citrulline group, placebo 73%): 100% | Heart rate ([6]; citrulline vs placebo): consistently higher in the placebo group than the citrulline group | AE leading to death, SAE, AE leading to discontinuation ([6]; in vivo): No AE leading to death, no SAE, and no AE leading to discontinuation | impact on oxygen saturation or systemic arterial blood pressure ([6]; in vivo): no noteworthy impact | post-operative bleeding (length and volume of chest tube drainage) versus placebo ([6]; in vivo): no difference in post-operative bleeding | BUN ([6]; stable in the placebo group, p=0.0111): increased from baseline through to Day 2 | duration of mechanical ventilation versus placebo (Kaplan-Meier) [7]: reduced duration of mechanical ventilation
